Assay results: patent US20250304623A1, “PEPTIDES FOR INTRACELLULAR DELIVERY” (UNIVERSIDADE DE SANTIAGO DE COMPOSTELA, priority 2022, published 2025)
*: point of attachment. NHNH2 = NN*

Key:
Assay type in all cases: cell-based
[1] = test system: ARPE19 cells expressing EGFP; experiment: EGFP-targeting siRNA delivery (GFP silencing vs siMOCK), ARPE19
Description: (§1) To generate an EGFP expressing HeLa cell line, HeLa cells were transfected with EGFP pDNA (pEGFP-C1, Clontech) and stable transfectants were selected with 400 μg/mL of G-418 (Millipore). Green clones were selected by epifluorescence microscopy and tested for EGFP expression stability through several passages. […] All other EGFP-expressing cell lines were obtained in a similar way from parent non-EGFP-expressing cell lines.
(§2) Cells expressing EGFP were seeded in a 96 well plate the day before the experiment at a concentration of 50,000 cell/mL (100 μL/w) in DMEM+10% FBS+1% Gln-Abt. For robotic library screening, the delivery of an EGFP-targeting siRNA (EGFP: enhanced green fluorescent protein, Ambion® Silencer® GFP Positive Control siRNA (siGFP) (AM4626)) in six different cell lines expressing EGFP was performed. […] The mixture was shaken for 30 min at room temperature (rt) before the addition to the cells. The cell medium was aspirated, and cells were washed twice with PBS. Finally, 50 μL of the solution of siRNA/amphiphile complexes were added to the cells and incubated for 4 h. After transfection, the medium was replaced by 100 μL of fresh DMEM supplemented with 10% FBS. The fluorescence knockdown was quantified after 72 h in a plate reader, by comparison with cells transfected with a non-targeting siRNA control (siMOCK, Silencer™ Negative Control No. 1 siRNA (siMOCK) (AM4611)). EGFP knockdown was compared with Lipofectamine® RNAiMAX silencing efficiency (30-60% depending on cell line, defined with a numeric value in the below tables). All experiments were done in triplicate.
(§3) Tables 1-7: RLuc (pDNA) or EGFP (mRNA) expression levels were normalized to Lipofectamine reagents (value=1) and expressed as fold-times signal increase. In the case of siRNA, the siRNA treated cells fluorescence was compared with siMOCK control fluorescence, while Cas9-RNP mediated knockout was measured against the fluorescence of untreated cells. In both siRNA and Cas9-RNP, values are expressed as % fluorescence reduction. Amphiphile concentration was 5 μM in all cases. All experiments were performed in triplicate.
(§4) Tables 20-25 show the mean (triplicates) percentage of GFP-silencing, accounted by fluorescence intensity decrease relative to a non-targeting siRNA (siMOCK) control, measured after the transfection of siRNA by different amphiphiles at different concentrations in a variety of cell lines. Background values, accounted by untreated control cells, were subtracted for processing.

[2] = test system: ARPE19 cells expressing EGFP; experiment: Cas9-RNP delivery against EGFP (gene editing, plate reader), ARPE19
Description: as §1
(§5) Cells expressing EGFP were seeded in a 96 well plate the day before the experiment at a concentration of 50,000 cell/mL (100 μL/w) in DMEM+10% FBS+1% Gln-Abt. For robotic library screening, the delivery of Cas9-RNP against EGFP (RNP designed to knock-out the gene encoding for the enhanced green fluorescent protein (EGFP)) was performed. For RNP assembly, 9.2 μL of crRNA and 9.2 μL of tracrRNA were mixed in 211.6 μL of Nuclease-Free Duplex Buffer (IDT), incubated for 5 min at 95° C. and slowly cooled at rt (see I. Lostalé-Seijo, et al. Peptide/Cas9 nanostructures for ribonucleoprotein cell membrane transport and gene edition, Chem. Sci., 2017). Cas9 protein was dissolved in DMEM at a final concentration of 4 μM and equal volumes of the RNA complex and Cas9 were mixed and incubated for 5 min at rt. 75 μL of the corresponding amphiphile concentrations were added to 5 μL of RNP at 2 μM. The mixture was shaken for 30 min at room temperature before the addition to the cells. The cell medium was aspirated, and cells were washed twice with PBS. Cells were covered with 30 μL of DMEM and 20 μL of the RNP/amphiphile complexes were added to the cells (final peptide concentrations=2.5, 5 and 10 μM; final Cas9-RNP concentration=50 nM) and incubated for 4 h. After the incubation, the medium was replaced by 100 μL of fresh DMEM supplemented with 10% FBS. The total EGFP fluorescence was quantified after 72 h in a plate reader (FIG. 2, Table 1 (right) and Table 6). All experiments were done in triplicate. […]
(§6) Tables 26-31 show the mean (triplicates) percentage of gene editing, accounted by GFP fluorescence intensity decrease (% of reduction), measured after the transfection of Cas9-RNP by different amphiphiles at different concentrations in a variety of cell lines. Background values, accounted by untreated control cells, were subtracted for processing.

[3] = test system: A549 cells expressing EGFP; experiment: EGFP-targeting siRNA delivery (GFP silencing vs siMOCK), A549; settings: A549 cells
Description: as §1, §2, §3, §4

[4] = test system: HepG2 cells expressing EGFP; experiment: EGFP-targeting siRNA delivery (GFP silencing vs siMOCK), HepG2
Description: as §1, §2, §3, §4

[5] = test system: ARPE19 cells; experiment: RLuc pDNA delivery, robotic library screening, ARPE19
[6] = test system: HepG2 cells expressing EGFP; experiment: Cas9-RNP delivery against EGFP (gene editing, plate reader), HepG2
Description: as §1, §5, §6

[7] = test system: HCT116 cells; experiment: RLuc pDNA delivery, robotic library screening, HCT116

Ac-RRLK*RLLRRLK*RLK*RRL-NH2 (Ac-RRLK(NHNH2)RLLRRLK(NHNH2)RLK(NHNH2)RRL-NH2; not fully specified; printed as Ac-RRLK*RLLRRLK*RLK*RRL-NH2; also: K*4,K*11,K*14: native or modified lysine (ε-amide to a linker)) [Peptide 17.3]
percentage of GFP-silencing relative to siMOCK ([1]; Dodecanal, 5 μM): 29%
percentage of GFP-silencing relative to siMOCK ([1]; Dodecanal, 10 μM): 14%
percentage of GFP-silencing relative to siMOCK ([1]; Dodecanal, 15 μM): 22%
percentage of GFP-silencing relative to siMOCK ([1]; Myristoleyl, 5 μM): 43%
percentage of GFP-silencing relative to siMOCK ([1]; Myristoleyl, 15 μM): −5%
percentage of GFP-silencing relative to siMOCK ([1]; Oleyl, 10 μM): 22%
percentage of GFP-silencing relative to siMOCK ([1]; Palmitoleyl, 5 μM): 36%
percentage of GFP-silencing relative to siMOCK ([1]; Palmitoleyl, 10 μM): 24%
percentage of GFP-silencing relative to siMOCK ([1]; Palmitoleyl, 15 μM): −4%
percentage of GFP-silencing relative to siMOCK ([1]; Petroselinyl, 5 μM): 36%
percentage of GFP-silencing relative to siMOCK ([1]; Petroselinyl, 10 μM): 20%
percentage of gene editing, GFP fluorescence intensity decrease (% of reduction) ([2]; Myristoleyl, 10 μM): 44%
percentage of gene editing, GFP fluorescence intensity decrease (% of reduction) ([2]; Oleyl, 10 μM): 45%
percentage of gene editing, GFP fluorescence intensity decrease (% of reduction) ([2]; Oleyl, 15 μM): −9%
percentage of gene editing, GFP fluorescence intensity decrease (% of reduction) ([2]; Palmitoleyl, 5 μM): 12%
percentage of gene editing, GFP fluorescence intensity decrease (% of reduction) ([2]; Palmitoleyl, 10 μM): 60%
percentage of gene editing, GFP fluorescence intensity decrease (% of reduction) ([2]; Palmitoleyl, 15 μM): 31%
percentage of gene editing, GFP fluorescence intensity decrease (% of reduction) ([2]; Petroselinyl, 10 μM): 26%
percentage of gene editing, GFP fluorescence intensity decrease (% of reduction) ([2]; Petroselinyl, 15 μM): 27%
percentage of GFP-silencing relative to siMOCK ([3]; Dodecanal, 5 μM): 25%
percentage of GFP-silencing relative to siMOCK ([3]; Dodecanal, 10 μM): 4%
percentage of GFP-silencing relative to siMOCK ([3]; Myristoleyl, 5 μM): 24%
percentage of GFP-silencing relative to siMOCK ([3]; Myristoleyl, 10 μM): 8%
percentage of GFP-silencing relative to siMOCK ([3]; Myristoleyl, 15 μM): 6%
percentage of GFP-silencing relative to siMOCK ([4]; Dodecanal, 5 μM): 13%
percentage of GFP-silencing relative to siMOCK ([4]; Dodecanal, 10 μM): 18%
percentage of GFP-silencing relative to siMOCK ([4]; Dodecanal, 15 μM): −4%
percentage of GFP-silencing relative to siMOCK ([4]; Myristoleyl, 15 μM): −18%
percentage of GFP-silencing relative to siMOCK ([4]; Oleyl, 10 μM): 8%
percentage of GFP-silencing relative to siMOCK ([4]; Palmitoleyl, 5 μM): 4%
percentage of GFP-silencing relative to siMOCK ([4]; Palmitoleyl, 15 μM): −2%
percentage of GFP-silencing relative to siMOCK ([4]; Petroselinyl, 5 μM): −11%
percentage of GFP-silencing relative to siMOCK ([4]; Petroselinyl, 10 μM): 5%
mean luminescent intensity (RLuc pDNA) ([5]; Dodecanal, 5 μM): 411 RLU
mean luminescent intensity (RLuc pDNA) ([5]; Dodecanal, 10 μM): 617 RLU
mean luminescent intensity (RLuc pDNA) ([5]; Dodecanal, 15 μM): 1217 RLU
mean luminescent intensity (RLuc pDNA) ([5]; Myristoleyl, 5 μM): −148 RLU
mean luminescent intensity (RLuc pDNA) ([5]; Myristoleyl, 10 μM): −514 RLU
mean luminescent intensity (RLuc pDNA) ([5]; Myristoleyl, 15 μM): −339 RLU
mean luminescent intensity (RLuc pDNA) ([5]; Oleyl, 10 μM): 822 RLU
mean luminescent intensity (RLuc pDNA) ([5]; Oleyl, 15 μM): 1043 RLU
mean luminescent intensity (RLuc pDNA) ([5]; Palmitoleyl, 5 μM): 7062 RLU
mean luminescent intensity (RLuc pDNA) ([5]; Palmitoleyl, 15 μM): 413 RLU
mean luminescent intensity (RLuc pDNA) ([5]; Petroselinyl, 5 μM): 5399 RLU
mean luminescent intensity (RLuc pDNA) ([5]; Petroselinyl, 15 μM): 398 RLU
percentage of gene editing, GFP fluorescence intensity decrease (% of reduction) ([6]; Myristoleyl, 5 μM): 6%
percentage of gene editing, GFP fluorescence intensity decrease (% of reduction) ([6]; Myristoleyl, 10 μM): 38%
percentage of gene editing, GFP fluorescence intensity decrease (% of reduction) ([6]; Palmitoleyl, 5 μM): −2%
percentage of gene editing, GFP fluorescence intensity decrease (% of reduction) ([6]; Palmitoleyl, 10 μM): 31%
percentage of gene editing, GFP fluorescence intensity decrease (% of reduction) ([6]; Palmitoleyl, 15 μM): 31%
percentage of gene editing, GFP fluorescence intensity decrease (% of reduction) ([6]; Petroselinyl, 5 μM): −2%
percentage of gene editing, GFP fluorescence intensity decrease (% of reduction) ([6]; Petroselinyl, 10 μM): 39%
percentage of gene editing, GFP fluorescence intensity decrease (% of reduction) ([6]; Petroselinyl, 15 μM): 35%
mean luminescent intensity (RLuc pDNA) ([7]; Dodecanal, 10 μM): 1102 RLU
mean luminescent intensity (RLuc pDNA) ([7]; Myristoleyl, 5 μM): 7561 RLU
mean luminescent intensity (RLuc pDNA) ([7]; Myristoleyl, 10 μM): −331 RLU
mean luminescent intensity (RLuc pDNA) ([7]; Oleyl, 10 μM): 1799 RLU
mean luminescent intensity (RLuc pDNA) ([7]; Oleyl, 15 μM): 1957 RLU
mean luminescent intensity (RLuc pDNA) ([7]; Palmitoleyl, 5 μM): 14037 RLU
mean luminescent intensity (RLuc pDNA) ([7]; Palmitoleyl, 10 μM): 5954 RLU
mean luminescent intensity (RLuc pDNA) ([7]; Palmitoleyl, 15 μM): 892 RLU
mean luminescent intensity (RLuc pDNA) ([7]; Petroselinyl, 5 μM): 46486 RLU
mean luminescent intensity (RLuc pDNA) ([7]; Petroselinyl, 10 μM): 11022 RLU
mean luminescent intensity (RLuc pDNA) ([7]; Petroselinyl, 15 μM): 1651 RLU

Ac-RRLK*RLLRRLK*RL-NH2 (Ac-RRLK(NHNH2)RLLRRLK(NHNH2)RL-NH2; not fully specified; printed as Ac-RRLK*RLLRRLK*RL-NH2; also: K*4,K*11: native or modified lysine (ε-amide to a linker)) [Peptide 13.2]
percentage of GFP-silencing relative to siMOCK ([1]; Oleyl, 10 μM): 22%
percentage of GFP-silencing relative to siMOCK ([1]; Oleyl, 15 μM): 1%
percentage of gene editing, GFP fluorescence intensity decrease (% of reduction) ([2]; Oleyl, 5 μM): 13%
percentage of gene editing, GFP fluorescence intensity decrease (% of reduction) ([2]; Oleyl, 10 μM): −7%
percentage of GFP-silencing relative to siMOCK ([3]; Oleyl, 5 μM): 19%
percentage of GFP-silencing relative to siMOCK ([3]; Oleyl, 10 μM): −2%
percentage of GFP-silencing relative to siMOCK ([3]; Oleyl, 15 μM): −21%
percentage of GFP-silencing relative to siMOCK ([4]; Dodecanal, 10 μM): 13%
percentage of GFP-silencing relative to siMOCK ([4]; Dodecanal, 15 μM): −5%
percentage of GFP-silencing relative to siMOCK ([4]; Palmitoleyl, 5 μM): 16%
percentage of GFP-silencing relative to siMOCK ([4]; Palmitoleyl, 10 μM): 4%
percentage of GFP-silencing relative to siMOCK ([4]; Palmitoleyl, 15 μM): 7%
percentage of GFP-silencing relative to siMOCK ([4]; Petroselinyl, 5 μM): −11%
percentage of GFP-silencing relative to siMOCK ([4]; Petroselinyl, 10 μM): 2%
percentage of GFP-silencing relative to siMOCK ([4]; Petroselinyl, 15 μM): 0%
mean luminescent intensity (RLuc pDNA) ([5]; Oleyl, 5 μM): 1077 RLU
mean luminescent intensity (RLuc pDNA) ([5]; Oleyl, 10 μM): 499 RLU
mean luminescent intensity (RLuc pDNA) ([5]; Oleyl, 15 μM): 641 RLU
percentage of gene editing, GFP fluorescence intensity decrease (% of reduction) ([6]; Dodecanal, 5 μM): −36%
percentage of gene editing, GFP fluorescence intensity decrease (% of reduction) ([6]; Dodecanal, 10 μM): −41%
percentage of gene editing, GFP fluorescence intensity decrease (% of reduction) ([6]; Dodecanal, 15 μM): 9%
percentage of gene editing, GFP fluorescence intensity decrease (% of reduction) ([6]; Oleyl, 10 μM): −21%
percentage of gene editing, GFP fluorescence intensity decrease (% of reduction) ([6]; Oleyl, 15 μM): −33%
mean luminescent intensity (RLuc pDNA) ([7]; Oleyl, 5 μM): 15723 RLU
mean luminescent intensity (RLuc pDNA) ([7]; Oleyl, 10 μM): 2338 RLU
mean luminescent intensity (RLuc pDNA) ([7]; Oleyl, 15 μM): 1593 RLU
